Biological target: T1, JAK-3 (Homo sapiens, UniProt P52333)
T1 construct: GST fusion constructs of the kinase domains of both enzymes are used; GST
Test: JAK LANCE enzymatic assay (JAK-3)
Type: biochemical
Conditions: Table A; read-out: Jak-3/ IC50
Excerpt: Binding of cytokines and certain growth factors to their respective receptors trigger activation of Janus kinases, which phosphorylate members of the STAT family. Phosphorylated STAT molecules dimerize and migrate to the nucleus where they bind to DNA and initiate transcription of responsive genes. Inhibitors of pathways downstream of cytokine/growth factor receptors have therapeutic potential for several indications. An enzymatic assay for JAK-3 and JAK-2 has been developed to identify T-cell selective inhibitors. GST fusion constructs of the kinase domains of both enzymes are used and a biotinylated, tyrosine containing peptide serves as substrate. Phosphorylation of this peptide by the respective kinase is quantified with an europium-labeled anti-phosphotyrosine antibody (Eu-PT66) as energy donor and a streptavidin-allophycocyanine conjugate (SA-APC) as energy acceptor. The assay has been established in a 384 well format.
In the JAK LANCE™ assay, a biotinylated peptide is incubated together with compounds and ATP in buffer. The phosphorylation reaction starts after addition of JAK kinase. After incubation at RT the reaction is stopped with EDTA and the product detected by addition Streptavidin-Allophycocyanin and Europium-labeled antiphosphotyrosine antibody. The signal is measured using an EnVision Reader. Exc: 320 nm, Em, Donor: 615 nm and Em, Acceptor: 665 nm in time resolved fashion with a delay of […].

T1 sequence (P52333 822-1111 limits assumed): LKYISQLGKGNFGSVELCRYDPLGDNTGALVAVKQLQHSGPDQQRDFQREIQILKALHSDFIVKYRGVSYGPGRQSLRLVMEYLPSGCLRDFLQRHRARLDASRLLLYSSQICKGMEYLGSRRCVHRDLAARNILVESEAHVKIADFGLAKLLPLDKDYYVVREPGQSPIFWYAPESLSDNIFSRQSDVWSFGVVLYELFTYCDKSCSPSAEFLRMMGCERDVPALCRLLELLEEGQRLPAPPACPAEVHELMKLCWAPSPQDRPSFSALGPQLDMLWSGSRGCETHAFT

IC50 | Structure (SMILES)
≤ 0.1 µM | CCC(CC)n1ccc2cnc(Nc3ccc(N4CCN(C)CC4)c(F)c3)nc21 [drawing 83]
≥ 0.1 µM | CCC(CC)n1ccc2cnc(Nc3ccc(N4CCN(C)CC4)cn3)nc21 [drawing 82]

Second part, the molecule before the results:

Structure (SMILES) | IC50
CCC(CC)N1C(=O)C(C)(C)c2cnc(Nc3ccc(N4CCN(C(C)=O)CC4)cc3)nc21 | ≥ 0.1 µM
CCC(CC)N1C(=O)Cc2cnc(Nc3ccc(C(=O)NC)cc3)nc21 | ≥ 0.1 µM
CCC(CC)N1C(=O)Cc2cnc(Nc3ccc(C(=O)N4CCN(C)CC4)cc3)nc21 | ≥ 0.1 µM
CCC(c1ccccc1)N1C(=O)Cc2cnc(Nc3ccc(N4CCN(C(C)=O)CC4)cc3)nc21 (centres unmarked) | ≥ 0.1 µM
CCC(CC)N1C(=O)Cc2cnc(Nc3cccc(OCCN(CC)CC)c3)nc21 | ≥ 0.1 µM
CCC(CC)N1C(=O)Cc2cnc(Nc3ccc(NC(=O)c4ccncc4)cc3)nc21 | ≥ 0.1 µM
CCC(CC)N1C(=O)Cc2cnc(Nc3ccc(S(=O)(=O)N4CCN(C)CC4)cc3)nc21 | ≥ 0.1 µM
CN1CCN(C(=O)c2cccc(Nc3ncc4c(n3)N(C3CC3)C(=O)C4)c2)CC1 | ≥ 0.1 µM
CCC(CC)N1C(=O)Cc2cnc(Nc3cccc(C(=O)N4CCOCC4)c3)nc21 | ≥ 0.1 µM
CCC(CC)N1C(=O)Cc2cnc(Nc3cccc(NCCN4CCCC4)c3)nc21 | ≤ 0.1 µM
CCC(CC)N1C(=O)Cc2cnc(Nc3ccc(OCCN4CCCC4)cc3)nc21 | ≤ 0.1 µM
CCC(CC)N1C(=O)Cc2cnc(Nc3cc(NC(=O)c4ccncc4)ccc3F)nc21 | ≥ 0.1 µM

Same assay, conditions: Table B; read-out: Jak-3 Lance/ IC50 [nmol I-1]

IC50 | Structure (SMILES)
≥ 0.1 µM | CCC(CC)n1cc(C)c2cnc(Nc3ccc(C(=O)NC4CCCC4)cc3)nc21 [drawing 116]
≥ 0.1 µM | CCC(CC)n1c(C)cc2cnc(Nc3ccc(C(=O)NC4CCCC4)cc3)nc21 [drawing 124]
≥ 0.1 µM | Cc1cn(C2CCCC2)c2nc(Nc3ccc(N4CCNCC4)cn3)ncc12 [drawing 97]
≥ 0.1 µM | Cc1cn(C2CCCCC2)c2nc(Nc3ccc(N4CCNCC4)cc3)ncc12
≥ 0.1 µM | CCC(CC)n1cc(C)c2cnc(Nc3ccc(N4CCN(C)CC4)cc3)nc21 [drawing 103]
≥ 0.1 µM | CC(=O)N1CCN(c2ccc(Nc3ncc4ccn(C5CCCC5)c4n3)cc2)CC1 [drawing 111]
≥ 0.1 µM | CCC(CC)n1cc(C)c2cnc(Nc3ccc(N4CCN(C(C)=O)CC4)cc3)nc21 [drawing 101]
≥ 0.1 µM | Cc1cn(C2CC2)c2nc(Nc3ccc(N4CCN(C)CC4)cc3)ncc12 [drawing 121]

Biological target: hCDK1/B (Homo sapiens, UniProt P06493)
Sequence (P06493 whole entry): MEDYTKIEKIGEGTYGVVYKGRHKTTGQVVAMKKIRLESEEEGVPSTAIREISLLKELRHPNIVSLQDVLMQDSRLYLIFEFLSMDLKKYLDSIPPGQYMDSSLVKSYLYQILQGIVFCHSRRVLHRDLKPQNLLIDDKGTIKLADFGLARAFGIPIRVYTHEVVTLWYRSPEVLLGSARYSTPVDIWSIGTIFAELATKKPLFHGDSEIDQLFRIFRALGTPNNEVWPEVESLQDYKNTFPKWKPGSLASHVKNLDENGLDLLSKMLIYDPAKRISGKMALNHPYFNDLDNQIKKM
Sequence (P14635 whole entry partner): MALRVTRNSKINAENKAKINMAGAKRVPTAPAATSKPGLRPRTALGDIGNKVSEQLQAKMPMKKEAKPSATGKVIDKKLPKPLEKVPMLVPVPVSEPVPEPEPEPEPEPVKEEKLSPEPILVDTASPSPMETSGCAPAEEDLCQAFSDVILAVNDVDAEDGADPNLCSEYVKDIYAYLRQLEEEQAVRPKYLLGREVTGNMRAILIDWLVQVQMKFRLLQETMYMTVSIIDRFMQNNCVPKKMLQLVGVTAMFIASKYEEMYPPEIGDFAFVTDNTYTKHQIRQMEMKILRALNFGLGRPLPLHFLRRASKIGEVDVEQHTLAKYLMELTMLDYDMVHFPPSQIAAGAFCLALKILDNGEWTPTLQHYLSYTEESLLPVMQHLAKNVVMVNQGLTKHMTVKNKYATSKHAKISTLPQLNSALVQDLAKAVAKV
Test: hCDK1/B assay
Type: biochemical
Conditions: Table E; read-out: hCDK1/B/IC50 [umol l − 1]

IC50 | Structure (SMILES)
> 10 µM | Cc1c(C(=O)N(C)C)n(C2CCCC2)c2nc(Nc3ccc(N4CCNCC4)cn3)ncc12 [Example 392]
< 10 µM | Cc1cn(C2CCCC2)c2nc(Nc3ccc(CO)cc3)ncc12 [Example 466]
< 1 µM | CCC(CC)n1c(CNc2ccon2)cc2cnc(Nc3ccc(N4CCN(C(C)=O)CC4)cc3)nc21 [Example 371]
< 10 µM | CCC(CC)n1c(CNc2cc(C)[nH]n2)cc2cnc(Nc3ccc(N4CCN(C(C)=O)CC4)cc3)nc21 [Example 372]
> 15 µM | CN(C)C(=O)c1cc2cnc(NCc3ccc(N4CCNCC4)cc3)nc2n1C1CCCC1 [Example 467]
> 15 µM | Cc1cn(C2CCCC2)c2nc(Nc3ccc(CN4CCN(C(=O)OC(C)(C)C)CC4)cc3)ncc12 [Example 462]

Second part, the molecule before the results:

Structure (SMILES) | IC50
Cc1cn(C2CCCC2)c2nc(Nc3ccc4[nH]ncc4c3)ncc12 [Example 281] | < 10 µM
Cc1cn(C2CCCC2)c2nc(Nc3ccc(N4CCOCC4)cn3)ncc12 [Example 302] | > 10 µM
CCC(CC)n1c(C(=O)Nc2ccc(CN3CCN(C)CC3)cc2)cc2cnc(Nc3ccc(N4CCNCC4)cc3)nc21 [Example 354] | > 15 µM
CCC(CC)n1c(CNC2CCCC2)cc2cnc(Nc3ccc(N4CCN(C(C)=O)CC4)cc3)nc21 [Example 370] | < 10 µM
Cc1cn(C2CCCC2)c2nc(Nc3ccc(N4CCCCC4)cc3)ncc12 [Example 278] | > 10 µM
Cc1cn(C2CCCC2)c2nc(Nc3ccc(-n4ccnc4)cc3)ncc12 [Example 312] | < 10 µM
CCC(CC)n1c(C(=O)Nc2ccc(C(C)(C)C)cc2)cc2cnc(Nc3ccc(N4CCNCC4)cc3)nc21 [Example 349] | > 15 µM
Cc1cn(C2CCCC2)c2nc(Nc3ccc(C(=O)N4CCOCC4)cc3)ncc12 [Example 292] | < 10 µM
Cc1cn(C2CCCC2)c2nc(Nc3ccc(N(C)C)cc3)ncc12 [Example 311] | > 10 µM
Cc1cn(C2CCCC2)c2nc(Nc3ccc(N4CCNCC4)cn3)ncc12 [Example 267] | > 10 µM

Biological target: CDK2/Cyclin-A kinase complex (Homo sapiens, UniProt P24941)
Test: CDK2 IMAP fluorescence polarization assay
Type: biochemical
Conditions: Table E; read-out: CDK2cyA IMAP/IC50 [umol l − 1]
Excerpt: In order to test the CDK2 activity of the compounds of the invention, the CDK2 assay is a flourescence polarization assay, where the enzyme is a purified active CDK2/Cyclin-A kinase complex and the substrate is a synthesized peptide derived from Histone H1. This assay utilizes the IMAP technology from Molecular Devices. The active CDK2/Cyclin-A complex phosphorylates the peptide substrate, which is conjugated with the TAMRA tag. The phosphorylated site is then recognized by a metal containing molecule that interacts with the TAMRA tag to induce a high flourescence polarization. The compounds that inhibit the CDK2 kinase activity would inhibit the flourescence output of the assay.

IC50 | Structure (SMILES)
< 10 µM | Cc1c(C(=O)N(C)C)n(C2CCCC2)c2nc(Nc3ccc(N4CCNCC4)cn3)ncc12 [Example 392]
< 10 µM | Cc1cn(C2CCCC2)c2nc(Nc3ccc(CO)cc3)ncc12 [Example 466]
< 10 µM | CCC(CC)n1c(CNc2ccon2)cc2cnc(Nc3ccc(N4CCN(C(C)=O)CC4)cc3)nc21 [Example 371]
< 1 µM | CCC(CC)n1c(CNc2cc(C)[nH]n2)cc2cnc(Nc3ccc(N4CCN(C(C)=O)CC4)cc3)nc21 [Example 372]
> 15 µM | CN(C)C(=O)c1cc2cnc(NCc3ccc(N4CCNCC4)cc3)nc2n1C1CCCC1 [Example 467]
> 15 µM | Cc1cn(C2CCCC2)c2nc(Nc3ccc(CN4CCN(C(=O)OC(C)(C)C)CC4)cc3)ncc12 [Example 462]

Second part, the molecule before the results:

Structure (SMILES) | IC50
Cc1cn(C2CCCC2)c2nc(Nc3ccc4[nH]ncc4c3)ncc12 [Example 281] | < 10 µM
Cc1cn(C2CCCC2)c2nc(Nc3ccc(N4CCOCC4)cn3)ncc12 [Example 302] | > 10 µM
CCC(CC)n1c(C(=O)Nc2ccc(CN3CCN(C)CC3)cc2)cc2cnc(Nc3ccc(N4CCNCC4)cc3)nc21 [Example 354] | > 15 µM
CCC(CC)n1c(CNC2CCCC2)cc2cnc(Nc3ccc(N4CCN(C(C)=O)CC4)cc3)nc21 [Example 370] | < 10 µM
Cc1cn(C2CCCC2)c2nc(Nc3ccc(N4CCCCC4)cc3)ncc12 [Example 278] | > 10 µM
Cc1cn(C2CCCC2)c2nc(Nc3ccc(-n4ccnc4)cc3)ncc12 [Example 312] | < 10 µM
CCC(CC)n1c(C(=O)Nc2ccc(C(C)(C)C)cc2)cc2cnc(Nc3ccc(N4CCNCC4)cc3)nc21 [Example 349] | > 15 µM
Cc1cn(C2CCCC2)c2nc(Nc3ccc(C(=O)N4CCOCC4)cc3)ncc12 [Example 292] | < 10 µM
Cc1cn(C2CCCC2)c2nc(Nc3ccc(N(C)C)cc3)ncc12 [Example 311] | > 10 µM
